Values of other authors in patent US20120122237A1, “HOMOGENEOUS NONCOMPETITIVE DETECTION OF POST TRANSLATIONAL MODIFICATIONS FOR USE IN HIGH THROUGHPUT ASSAYS” (priority 2010, published 2012).

Assays:
[1] = test system: Polyclonal antibody for 3-PBA; conditions: competitive ELISA
[2] = test system: Polyclonal antibody for 3-PBA
[3] = test system: Monoclonal Antibody for Atrazine; conditions: competitive ELISA
[4] = test system: Monoclonal Antibody for Atrazine

Compound	Crossreactivity (%) ELISA [1] [%]	Crossreactivity (%) PHAIA [2] [%]	Crossreactivity (%) ELISA [3] [%]	Crossreactivity (%) PHAIA [4] [%]
4-hydroxy 3-PBA	98	0	–	–
O=C(O)c1cccc(Oc2ccccc2)c1 [3-PBA, 3-phenoxybenzoic acid]	100	100	–	–
O=Cc1cccc(Oc2ccccc2)c1 [3-pheonoxy aldehyde]	10	3	–	–
CCNc1nc(Cl)nc(NC(C)C)n1 [atrazine]	–	–	100	100
CCNc1nc(Cl)nc(NC(C)(C)C#N)n1 [cyanazine]	–	–	91	0
CC(C)Nc1nc(Cl)nc(NC(C)C)n1 [propazine]	–	–	116	144
CCNc1nc(Cl)nc(NCC)n1 [simazine]	–	–	48	0
